Source: patent publication US20120202794A1 (priority 2011, published 2012)

What was measured:
[1] = Cell cytotoxicity assay (MTS), CC90 as reported in Table 1, cell line not stated; assay type: cell-based; settings: human, cell line not given
Protocol: Cell cytotoxicity assays. Each compound (serially diluted from 100 μM) was added to Huh7 (2×10^3 cells/well), HepG2 (2×10^3 cells/well), BxPC3 (2×10^3 cells/well), or CEM (5×10^3 cells/well) cells and allowed to incubate for 8 days at 37° C. A medium only control was used to determine the minimum absorbance value […]. At the end of the growth period, MTS dye from the CellTiter 96 Aqueous One Solution Cell Proliferation Assay kit (Promega) was added to each well and the plate was incubated for an additional 2 hours. The absorbance at 490 nm was read with a Victor3 plate reader (Perkin Elmer) using the medium only control wells as blanks. The 90% inhibition value (CC90) was determined by comparing the absorbance in wells containing cells and test compound to untreated cell control wells.

HCV Replicon 1b = test: HCV inhibition assay, HCV replicon 1b (Clone A or ET-lunet cells; RT-PCR or luciferase reporter); assay type: cell-based; settings: Hepatitis C virus, 96 h, HCV replicon 1b; 4 days incubation; read-out: Replicon 1b potency EC90
Protocol: HCV inhibition assay. Clone A or ET-lunet cells were seeded at a density of 1500 or 3000 cells per well in a 96-well plate, respectively. Test compounds serially diluted in culture medium without G418 were added to cells so that the final DMSO concentration was 0.5%. Plates were incubated at 37° C. in a 5% CO2 atmosphere for 4 days. Inhibition of HCV RNA replication was determined by real time PCR (RT-PCR) or by measuring the levels of luminescence expressed via the luciferase reporter gene encoded within the ET replicon. Briefly, for the RT-PCR assay, total RNA was extracted using the RNeasy-96 kit as recommended by the manufacturer (Qiagen, Valencia, Calif.), reversed transcribed into cDNA, and amplified using primer and probe mix for HCV 5′-NTR RNA and human ribosomal RNA (rRNA) in a one-step RT-PCR reaction as described previously (50). A relative quantification method was used to determine the extent of inhibition. The threshold cycle (Ct) of rRNA was subtracted from the Ct of HCV RNA (ΔCt). The average ΔCt of the DMSO cell controls was then subtracted from the ΔCt of the compound treated sample (ΔΔCt). Percent inhibition was determined by using the following equation: %=(1−(2^−ΔΔC^t))×100. For the luciferase-based replicon assay, luminescence was measured by using a Victor3 plate reader (Perkin-Elmer, Boston, Mass.) following the addition of Bright-Glo reagent as recommended by the manufacturer (Promega, Madison, Wis.). Percent inhibition of HCV replication was determined by comparing the change in luminescence of the drug treated wells versus the DMSO cell controls. EC50 and EC90 values, the concentrations at which 50% and 90% inhibition were achieved, were determined using the GraphPad Prism software (San Diego, Calif.).

SMILES | CC90 at 8 days ([1]; MTS assay, 8 days incubation) [µM] | EC90 (HCV Replicon 1b) [µM] | CC90 at 8 days [1] [µM]
CSCCC1C(=O)N[C@@H](c2ccccc2)CN1C(=O)c1cc(-c2ccc(F)cc2)on1 (stereo in doubt) [Compound 458, (3R,6S)-4-(5-(4-fluorophenyl)isoxazole-3-carbonyl)-3-((methylthio)ethyl)-6-phenylpiperazin-2-one] | > 10 | 2.07 | 
CC(C)C[C@H]1C(=O)NC(c2ccccc2)N1C(=O)[C@H]1C[C@@H]1c1ccccc1 (stereo in doubt) [Compound 531, (2R,5S)-5-isobutyl-2-phenyl-1-((1S,2S)-2-phenylcyclopropanecarbonyl)imidazolidin-4-one] | > 10 | > 10 | 
CC(C)C[C@H]1C(=O)NC(c2ccccc2)N1C(=O)[C@H]1C[C@@H]1c1ccc(F)cc1 (stereo in doubt) [Compound 533, (2R,5S)-1-((1S,2S)-2-(4-fluorophenyl)cyclopropane-carbonyl)-5-isobutyl-2-phenyl-imidazolidin-4-one] | > 10 | > 10 | 
CC(C)C[C@H]1CN(C(=O)[C@@H]2C[C@H]2c2ccccc2)[C@@H](CC(C)C)C(=O)N1 [Compound 70] |  | 0.8 | > 10
CC(C)C[C@H]1CN(C(=O)/C=C/c2ccc(Cl)cc2)[C@@H](CC(C)C)C(=O)N1 [Compound 72] |  | 2.5 | > 10
CC(C)C[C@H]1CN(C(=O)/C=C/c2ccc(C(F)(F)F)cc2)[C@@H](CC(C)C)C(=O)N1 [Compound 73] |  | 3.34 | > 10
CC(C)C[C@H]1CN(C(=O)/C=C/c2cccnc2)[C@@H](CC(C)C)C(=O)N1 [Compound 74] |  | > 10 | > 10
C/C(=C\C(=O)N1C[C@H](CC(C)C)NC(=O)[C@@H]1CC(C)C)c1ccccc1 [Compound 75] |  | > 10 | > 10
CC(C)C[C@H]1CN(C(=O)c2cc3ccccc3o2)[C@@H](CC(C)C)C(=O)N1 [Compound 76] |  | 9.18 | > 10
CC(C)C[C@H]1CN(C(=O)/C=C/c2ccccc2)[C@@H](CC(C)C)C(=O)N1 [Compound 77] |  | 3.24 | > 10
C/C(=C\c1ccccc1)C(=O)N1C[C@H](CC(C)C)NC(=O)[C@@H]1CC(C)C [Compound 78] |  | 9.93 | > 10
Cc1ccc(/C=C/C(=O)N2C[C@H](CC(C)C)NC(=O)[C@@H]2CC(C)C)cc1 [Compound 79] |  | 5.29 | > 10
CC(C)C[C@H]1CN(C(=O)/C=C/c2ccc(F)cc2)[C@@H](CC(C)C)C(=O)N1 [Compound 80] |  | 2.49 | > 10
CC(C)C[C@H]1CN(C(=O)/C=C/c2ccc(Cl)c(Cl)c2)[C@@H](CC(C)C)C(=O)N1 [Compound 81] |  | 7.31 | > 10
CC(C)C[C@H]1CN(C(=O)/C=C/c2ccc(F)c(F)c2)[C@@H](CC(C)C)C(=O)N1 [Compound 82] |  | 1.22 | > 10
CC(C)C[C@H]1CN(C(=O)/C=C/c2cccc(F)c2)[C@@H](CC(C)C)C(=O)N1 [Compound 83] |  | 2.91 | > 10
CC(C)C[C@H]1CN(C(=O)/C=C/c2cc(F)c(F)c(F)c2)[C@@H](CC(C)C)C(=O)N1 [Compound 84] |  | 2.64 | > 10
CC(C)C[C@H]1CN(C(=O)/C=C/c2ccc(F)c(Cl)c2)[C@@H](CC(C)C)C(=O)N1 [Compound 85] |  | 8.65 | > 10
CC(C)C[C@H]1CN(C(=O)/C=C/c2ccc(Cl)cc2F)[C@@H](CC(C)C)C(=O)N1 [Compound 86] |  | 0.59 | > 10
CC(C)C[C@H]1CN(C(=O)/C=C/c2ccc(F)cc2F)[C@@H](CC(C)C)C(=O)N1 [Compound 87] |  | 0.57 | > 10
Cc1cccc(C)c1NC(=O)CN1C[C@H](CC(C)C)NC(=O)[C@@H]1CC(C)C [Compound 88] |  | > 10 | > 10

SMILES | CC90 at 8 days ([1]; MTS assay, 8 days incubation) [µM] | EC90 (HCV Replicon 1b) [µM] | CC90 at 8 days [1] [µM]
CC(C)C[C@H]1CN(C(=O)c2ccc(Oc3ccccc3)cc2)[C@@H](CC(C)C)C(=O)N1 [Compound 89] |  | 6.88 | > 10
CC(C)C[C@H]1CN(C(=O)/C=C/c2ccc3c(c2)OCO3)[C@@H](CC(C)C)C(=O)N1 [Compound 90] |  | 7.72 | > 10
CC(C)C[C@H]1CN(C(=O)/C=C/c2ccc([N+](=O)[O-])cc2)[C@@H](CC(C)C)C(=O)N1 [Compound 91] |  | > 10 | > 10
CC(C)C[C@H]1CN(C(=O)/C=C/c2ccc(S(C)(=O)=O)cc2)[C@@H](CC(C)C)C(=O)N1 [Compound 92] |  | > 10 | > 10
CC(C)C[C@H]1CN(C(=O)/C=C/c2ccc(C(F)(F)F)cc2F)[C@@H](CC(C)C)C(=O)N1 [Compound 93] |  | 9.62 | > 10
CC(C)C[C@H]1CN(C(=O)/C=C/c2ccc(-c3ccccc3)cc2)[C@@H](CC(C)C)C(=O)N1 [Compound 94] |  | 8.37 | > 10
CC(C)C[C@H]1CN(C(=O)/C=C/c2cc(F)cc(F)c2)[C@@H](CC(C)C)C(=O)N1 [Compound 95] |  | 9.31 | > 10
CCC[C@H]1CN(C(=O)/C=C/c2ccc(F)cc2F)[C@@H](CC(C)C)C(=O)N1 [Compound 96] |  | 1.11 | > 10
CC(C)C[C@H]1CN(C(=O)c2ccc(-c3ccccc3)o2)[C@@H](CC(C)C)C(=O)N1 [Compound 97] |  | 7.28 | > 10
CC(C)C[C@H]1CN(C(=O)c2csc(-c3ccccc3)n2)[C@@H](CC(C)C)C(=O)N1 [Compound 98] |  | 7.92 | > 10
CC(C)C[C@H]1CN(C(=O)c2coc(-c3ccccc3)n2)[C@@H](CC(C)C)C(=O)N1 [Compound 99] |  | > 10 | > 10
CC(C)C[C@H]1CN(C(=O)c2cc(-c3ccccc3)[nH]n2)[C@@H](CC(C)C)C(=O)N1 [Compound 100] |  | > 10 | > 10
CC(C)C[C@H]1CN(C(=O)c2c[nH]c(-c3ccccc3)n2)[C@@H](CC(C)C)C(=O)N1 [Compound 101] |  | > 10 | > 10
CC(C)C[C@H]1CN(C(=O)c2cn(-c3ccccc3)cn2)[C@@H](CC(C)C)C(=O)N1 [Compound 102] |  | > 10 | > 10
CC(C)C[C@H]1CN(C(=O)c2cn(-c3ccc(F)cc3)cn2)[C@@H](CC(C)C)C(=O)N1 [Compound 103] |  | 8.64 | > 10
CC(C)C[C@H]1CN(C(=O)c2cnn(-c3ccc(F)cc3)c2)[C@@H](CC(C)C)C(=O)N1 [Compound 104] |  | 4.74 | > 10
CC(C)C[C@H]1CN(C(=O)c2cc(-c3ccc(Cl)cc3)ns2)[C@@H](CC(C)C)C(=O)N1 [Compound 105] |  | 1.49 | > 10
CC(C)C[C@H]1CN(C(=O)c2cc(C3CC3)on2)[C@@H](CC(C)C)C(=O)N1 [Compound 106] |  | 8.77 | > 10
CCc1cc(C(=O)N2C[C@H](CC(C)C)NC(=O)[C@@H]2CC(C)C)no1 [Compound 107] |  | 8.41 | > 10
CC(C)C[C@H]1C(=O)N[C@@H](C2CCCC2)CN1C(=O)[C@@H]1C[C@H]1c1ccc(Br)cc1 [Compound 332, (3S,6S)-6-cyclopentyl-4-((1R,2R)-2-(4-bromophenyl)cyclopropanecarbonyl)-3-isobutylpiperazin-2-one] |  | 1.31 | 
